In patent US20100022517A1, “OPHTHALMIC FORMULATION OF RHO KINASE INHIBITOR COMPOUND” (priority 2006, published 2010):
Converted amounts (≈) assume the structure as drawn. Where two headings read alike, the source gives them in different places.

How the values were obtained:
[1] = Impact of pH on solubility, buffered cosolvent system (plON pSOL Evolution); format: physicochemical; details: for solubility: buffered cosolvent system
Description: Solubility was determined within a target pH range of 4.0-9.0 using a buffered cosolvent system (plON pSOL Evolution).

[2] = Solubility of Compound A at target pH 7.3 in 0.85% NaCl vehicle with surfactant or chelating agent, filtered, UV analysis; format: physicochemical; details: for Concentration Compound A: 20 mM prepared
Text: Concentrations of the surfactant used were at the maximum allowable concentration for excipients Generally Regarded As Safe (GRAS).

[3] = Ocular comfort composite behaviour score after ocular instillation; format: in vivo, rabbit
Description: Dose Formulation and Administration.
Formulation A: 10 mM phosphate, 1% polysorbate 80, 0.85% NaCl, 0.02% BAC, 0.2% EDTA pH 7.0.
Formulation B: 10 mM phosphate, 1% polysorbate 80, 2.36% Glycerol, 0.02% BAC, 0.2% EDTA pH 7.1.
Formulation C: 10 mM phosphate, 1% polysorbate 80, 2.36% Glycerol, 0.02% BAC, 0.2% EDTA, 0.5% hydroxypropyl methyl cellulose, pH 7.1.
Formulation D: 10 mM phosphate, 1% polysorbate 80, 2.36% Glycerol, 0.02% BAC, 0.2% EDTA, 1% 1,2 dimyristoyl-sn-glycero-3-phosphocholine, pH 7.1.
Pharmacodynamic Analysis. Formulations A-D were administered as two 30 μl drops to the right eye of each rabbit within a dosing group. The rabbits were evaluated for 15 minutes after ocular instillation and their changes in behavior were recorded. […] The higher the score, the more discomfort an animal is. A mean±SE was generated for each group.

[4] = Effect of formulation pH on ocular surface, aqueous humor and systemic bioavailability after topical ocular dosing; format: in vivo
Description: Dose Formulation and Administration. Compound A was formulated at 0.12% w/v (the equivalent millimolar concentration is 3 mM) in 10 mM phosphate, 0.8% polysorbate 80, 0.85% NaCl, 0.01% BAC, 0.1% EDTA at three different pH's, 5.3, 6.3 and 7.3, Compound A was administered as a 30 μl drop to both eyes of each animal within a dosing group and the influence of pH on ocular and systemic exposure was examined.
Study sampling. Plasma, aqueous humor, and ocular samples were obtained from 2 animals (4 eyes) per dosing group at times of 0.25, 0.5, 1, and 2 hours post dosing.
Aqueous humor is the fluid within the anterior chamber of the eye and has the closest correlation to the concentration at the site of action, the trabecular meshwork. Cmax indicates the peak concentration of drug found within aqueous humor. AUC indicates total concentration of the drug within the aqueous humor over time.
Plasma concentration analysis indicates systemic exposure. Systemic exposure is the exposure of the drug to the entire body. Cmax and AUC describe the peak concentration and total concentration of the drug over time, respectively, for Compound A in plasma.
40 μL of saline was applied to the eyes at 0.25 h, 0.5 h, 1 h, and 2 h after administration of Compound A, and the lavage fluids were collected as samples. Ocular surface relates to the surface of the cornea and conjunctiva. Ocular surface residence time is the average time Compound A resides on the ocular surface.

[5] = Accelerated stability of Compound A formulation at 60° C., HPLC with UV detection; format: physicochemical; details: increase in pH from 5.3 to 6.3 and 7.3, 0.9% saline, 0.1% EDTA, 0.01% benzalkonium chloride, 0.8% polysorbate 80
Text: Compound A was formulated in a 0.9% saline solution containing 0.1% EDTA, 0.01% Benzalkonium Chloride and 0.8% Polysorbate 80 at three levels of pH; 5.3, 6.3 and 7.3.

[6] = […] w/v, 30 μl drop to both eyes, increasing pH 5.3, 6.3, 7.3

CCS(=O)(=O)Nc1cccc(CN2CCC[C@@H](Nc3ccc4[nH]ncc4c3)C2)c1 [Compound 1.123, (R)-N-(3-((3-(1H-indazol-5-ylamino)piperidin-1-yl)methyl)phenyl)ethanesulfonamide]
solubility ([1]; pH 5.6, read-out: maximum solubility): 5000 µg/mL (≈ 12.1 mM) | Avg. Sol ([1]; pH 5.6): 5001 µg/mL | Avg. Sol ([1]; pH 7.2): 948 µg/mL | Avg. Sol ([1]; pH 8.5): 282 µg/mL

OCCOc1cccc(CN2CC[C@@H](Nc3cccc4cnccc34)C2)c1 [Compound 2.039, (R)-2-(3-((3-(isoquinolin-5-ylamino)pyrrolidin-1-yl)methyl)phenoxy)ethanol]
Concentration Compound A ([2]; EDTA 0.3%, pH of solution 7.39, 0.85% NaCl): 1380 µg/mL | Concentration Compound A ([2]; HCO-40 (hydrogenated castor oil) 0.5%, pH of solution 7.39, 0.85% NaCl): 2540 µg/mL | Concentration Compound A ([2]; Poloxamer 188 0.1%, pH of solution 7.30, 0.85% NaCl): 1490 µg/mL | Concentration Compound A ([2]; Poloxamer 407 0.16%, pH of solution 7.28, 0.85% NaCl): 6020 µg/mL | Concentration Compound A ([2]; Polysorbate 80 1%, pH of solution 7.49, 0.85% NaCl): 3850 µg/mL | solubility of Compound A among the surfactant formulations ([2]; formulations containing polysorbate 80 and poloxamer 407, target pH 7.3): highest solubility | ocular comfort score ([3]; 0.16% w/v, two 30 μl drops, right eye, addition of 1% 1,2 dimyristoyl-sn-glycero-3-phosphocholine (Formulation D)): increased ocular discomfort | ocular comfort score ([3]; increasing concentrations 0.03%, 0.1%, 0.32% w/v in formulation A): increased ocular discomfort | ocular comfort score ([3]; lower concentrations 0.03 and 0.1% w/v in formulation A, versus ALPHAGAN, RESTASIS, pilocarpine, LUMIGAN): comparable to those of the approved glaucoma medications | solubility ([1]; pH 4-5.8, read-out: solubility): > 20000 µg/mL | Avg. Sol ([1]; pH 4.0): >20000 µg/mL | Avg. Sol ([1]; pH 5.8): >20000 µg/mL | Avg. Sol ([1]; pH 7.7): 2312 µg/mL | ocular surface concentration ([4]; 0.25 h, between pH 5.3 and 6.3): increased only slightly | ocular surface concentration ([4]; 0.25 h, from pH 6.3 to 7.3): no change | aqueous humor exposure (Cmax and AUC) [4, 6]: enhances the exposure within the aqueous humor | plasma concentration (Cmax and AUC), systemic exposure [4, 6]: no effect on the plasma concentration | ocular surface residence time ([4]; […] w/v, pH increased from 5.3, 6.3 to 7.3, over 2 hours): increase in residence time | ocular surface concentration ([4]; between 1 and 2 hours, pH 7.3): remained consistent | stability (percent of Compound A remaining) [5]: decrease in stability
